# In patent US20200108069A1, “Treatment of Fibrotic Conditions” (ANGLIA RUSKIN UNIVERSITY HIGHER EDUCATION CORPORATION, priority 2018, published 2020):
# Read-outs that look alike come from different tables or passages of the source.
# Experiments:
# [1] = system: fibroblasts isolated from human tunica albuginea (TA); TGF-β1-induced myofibroblast transformation; assay: In Cell ELISA (ICE) phenotypic screening assay of TGF-β1-induced myofibroblast transformation (α-SMA/DNA staining); format: cell-based; details: for IC50: co-incubation with 10 ng/ml TGF-β1 for 72 hours, α-SMA/DNA staining ratio, read-out: IC50, inhibition of TGF-β1-induced myofibroblasts transformation
# Description: Tunica albuginea tissue samples were collected from patients undergoing surgery at University College London Hospital (UCLH), London, UK for penile cancer or PD. All patients gave fully informed written consent to the study. The study was approved by independent research ethics committees (NRES Committee East of England 12/EE/0170 and NRES Committee North of Scotland 15/NS/0051). PD plaque tissue was obtained from patients with chronic PD undergoing a Lue procedure (plaque incision and grafting). Plaque tissue would have otherwise been discarded. Non-plaque TA was obtained from PD patients undergoing a Nesbit procedure whereby non-fibrotic TA tissue was excised from the opposite side of the plaque. TA tissue samples from patients with penile cancer were taken from the proximal side away from the tumour, with the tumour showing negative margins on histological examination.
# Tissue samples were carefully dissected to ensure that all cavernosal tissue was removed from the tunica albuginea (TA). To establish fibroblast cultures, TA fragments were seeded in 6-well tissue culture plates (Nunc, Fisher Scientific, UK) as described previously16. The tissue pieces were incubated in DMEM-F12 (GIBCO, Invitrogen, UK) containing 10% FCS (Fisher Scientific, UK) and 1% penicillin-streptomycin (GIBCO, Invitrogen, UK) at 37° C., 5% CO2 for 5-7 days. Tissue fragments were carefully removed using forceps upon outgrowth of cells. Passages 2 to 4 were used for the rest of the experiments.
# Cells were seeded onto 96 well optical flat bottom black microplates (Nunc, Fisher Scientific, UK) at 5×10^3 cells per well. After overnight attachment they were incubated with or without 10 ng/ml TGF-β1 for 72 hours. The cells were then fixed using 4% paraformaldehyde, and blocked with 10% donkey serum and 0.1% Triton X-100 in PBS. The cells were then incubated with anti-α-SMA antibody (1:3,000; Sigma Aldrich, UK) for 2 h. Afterwards cells were incubated with donkey anti-mouse secondary antibody conjugated to an infrared dye which emits at 800 nm (1:500; IRdye 800CW; Li-Cor, UK) and a nuclear counterstain at that emits at 700 nm (1:1,000; DRAQS, Biostatus, UK) for 1 h. The plate was scanned using an infrared imaging system (Odyssey CLx imager, LI-COR, UK) at both the 700 nm and 800 nm wavelengths.
# We have isolated primary fibroblasts from the plaque and non-plaque TA of patients with PD. We also isolated primary fibroblasts from TA of patients with penile cancer as non-fibrotic controls.
# [2] = system: TGF-β1-induced myofibroblast collagen contraction, TA-derived fibroblasts; assay: Collagen gel contraction assay (fibroblast populated collagen lattices); format: cell-based, human; details: 10 ng/ml TGF-β1; lattices released after 72 h, contraction observed for 8 h
# Protocol: Images were analysed using ImageJ software by measuring the surface area of the contracting lattice. Contraction was calculated as percentage of the surface of the unreleased lattice. Data is shown as percentage of maximum contraction of vehicle control. The two classes of drugs were then tested in functional assays. Firstly, we tested their efficacy in inhibiting collagen gel contraction as a measure of myofibroblast contractility; a characteristic function of myofibroblasts, which separates them from fibroblasts. […] Secondly, we tested the drugs' efficacy in inhibiting ECM protein production, which is again one of the critical characteristic functions of myofibroblasts. […] FIG. 4).
# [3] = system: TGF-β1 injection into the rat TA (animal model for PD); assay: Animal model for PD: assessment of erectile function (intracavernous pressure, ICP); format: in vivo, Male Sprague-Dawley rats; details: tamoxifen 5 mg/kg/day i.p., vardenafil 1.5 mg/kg/day drinking water, 5 weeks
# [4] = system: TGF-β1 injection into the rat TA (animal model for PD), penile fibrosis; assay: Animal model for PD: molecular and histological analysis of penile tissue (qPCR, Western blot, immunohistochemistry); format: in vivo, Male Sprague-Dawley rats
# Description: The animal model for PD was first described by […] Lue^18 and modified by Bivalacqua and Hellstrom^19. Male Sprague-Dawley rats (10-12 weeks old) were housed in a regulated environment with a 12-hour light/dark cycle in a standard experimental laboratory. The animals had free access to food and water ad libitum. Fifty male Sprague-Dawley rats were divided into 5 groups: A: sham (injection of vehicle citrate buffer), B: […] Treatment was initiated at the day after injury and continued for 5 weeks followed by a 48 hours wash-out period. The High-Capacity cDNA Reverse Transcription Kit (Applied Biosystems) was used according to the manufacturer's instructions to transcribe RNA to cDNA. One μg in 10 μl were added to 10 μl of the master mix for reverse transcription for a total reaction volume of 20 μl. After reverse transcription the cDNA was diluted 1:10 for qPCR. The Applied BiosystemsTM TaqManTM Fast Advanced Master Mix was used for qPCR. Gene specific primer pairs for GAPDH, beta-actin, alpha smooth muscle actin, elastin, and collagens I, III, and V were purchased from Applied Biosystems. […] Data was analysed using the 2-ΔΔCt method for relative quantifications. […] Statistical significance, unless otherwise stated, was calculated using one or two-way ANOVA and Student's t-test for unpaired means (two-sided). […]
# [5] = system: TGF-β1-induced myofibroblast ECM protein production, cells derived from TA tissue; assay: ECM production assay; format: cell-based; details: Homo sapiens, 168 h, 10 ng/ml TGF-β1 for 7 days
# Protocol: Cells were seeded onto 96 well optical flat bottom black microplates (Nunc, Fisher Scientific, UK) at 5×10^3 cells per well. After overnight attachment, they were stimulated with or without 10 ng/ml TGF-β1 and/or compounds for 7 days. DRAQS in PBS (1:1,000) was added and cells were incubated for 5 min at 37° C., 5% CO2 before scanning the plate to obtain nuclear staining. […] Afterwards ECM was stained either with Coomassie Blue (total ECM) overnight at 4° C. or with primary antibodies (collagen I, abcam; collagen III, Millipore; collagen V, abcam: fibronectin, Millipore) at 1:1000 for 1 h on a shaker, followed by incubation with secondary antibody and scanning the plate using an infrared imaging system (Odyssey CLx imager, LI-COR, UK) at both the 700 nm and 800 nm wavelengths. Results were normalized to the cell number before lysis.
# [6] = Homo sapiens, Fibroblast, read-out: Percentage of inhibition of TGF-β1 induced myofibroblast transformation, Tamoxifen only, 10 ng/ml TGF-β1, 72 hours
# [7] = Homo sapiens, Fibroblast, 10 ng/ml TGF-β1, 72 hours, read-out: Percentage of inhibition of TGF-β1 induced myofibroblast transformation, Vardenafil only
smiles,measurement,setting,value
Cc1cccc(-c2[nH]c(C(C)(C)C)nc2-c2ccc3c(c2)OCO3)n1 [SB505124],IC50,[1],0.6 µM
O=C(c1ccc(OCCN2CCCCC2)cc1)c1c(-c2ccc(O)cc2)sc2cc(O)ccc12 [raloxifene],IC50,[1],7 µM
CCCc1nn(C)c2c(=O)[nH]c(-c3cc(S(=O)(=O)N4CCN(C)CC4)ccc3OCC)nc12 [sildenafil],IC50,"[1]; Homo sapiens, Fibroblast",15 µM
CN1CC(=O)N2[C@H](c3ccc4c(c3)OCO4)c3[nH]c4ccccc4c3C[C@@H]2C1=O [tadalafil],IC50,"[1]; Homo sapiens, Fibroblast",3.5 µM
CC/C(=C(\c1ccccc1)c1ccc(OCCN(C)C)cc1)c1ccccc1 [tamoxifen],"Percentage of inhibition of TGF-β1 induced myofibroblast transformation, Tamoxifen only","[1]; 100 μM, 10 ng/ml TGF-β1, 72 hours",cell death
same,inhibition at 0.3 µM,[1]; [6],10 ± 3%
same,inhibition at 1 µM,[1]; [6],10 ± 2%
same,inhibition at 3 µM,[1]; [6],10 ± 3%
same,inhibition at 10 µM,[1]; [6],25 ± 3%
same,concentration at which TGF-β1-induced contraction of collagen was inhibited,[2],1 µM
same,TGF-β1-induced decrease in erectile function (ICP) by 55%,[3],prevented
same,"TGF-β1-induced upregulation of collagen expression (collagens I, III, V mRNA) in penile tissue","[4]; 5 weeks treatment, qPCR",prevented
same,penile fibrosis in an animal model for PD,[4]; FIG. 5,ameliorate penile fibrosis
CCCc1nc(C)c2c(=O)[nH]c(-c3cc(S(=O)(=O)N4CCN(CC)CC4)ccc3OCC)nn12 [vardenafil],inhibition at 0.3 µM,[1]; [7],3 ± 3%
same,inhibition at 1 µM,[1]; [7],10 ± 1%
same,inhibition at 3 µM,[1]; [7],8 ± 2%
same,inhibition at 10 µM,[1]; [7],17 ± 2%
same,inhibition at 30 µM,"[1]; Homo sapiens, Fibroblast, 30 μM, 10 ng/ml TGF-β1, 72 hours, read-out: Percentage of inhibition of TGF-β1 induced myofibroblast transformation, Vardenafil only",25 ± 1%
same,inhibition at 100 µM,"[1]; Homo sapiens, Fibroblast, 100 μM, 10 ng/ml TGF-β1, 72 hours, read-out: Percentage of inhibition of TGF-β1 induced myofibroblast transformation, Vardenafil only",48 ± 1%
same,IC50,"[1]; Homo sapiens, Fibroblast",30 µM
same,concentration at which TGF-β1-induced contraction of collagen was inhibited,[2],10 µM
same,IC50,"[5]; read-out: IC50, TGF-β1-induced ECM protein production: collagen I",23 µM
same,IC50,"[5]; read-out: IC50, TGF-β1-induced ECM protein production: collagen III",17 µM
same,IC50,"[5]; read-out: IC50, TGF-β1-induced ECM protein production: collagen V",23 µM
same,IC50,"[5]; read-out: IC50, TGF-β1-induced ECM protein production: fibronectin",44 µM
